Where a name gives a salt, the structure may show the parent alone.
Legend:
VCAM-1 = VCAM-1 ELISA on lysates of TNF-α stimulated HUVECs; type: cell-based; conditions: Homo sapiens, HUVEC, approx. 16 hours
Description: (§1) Compounds were dissolved in DMSO, aliquoted, and stored at −20° C. Cultured human vascular endothelial cells (HUVECs) were seeded in 96-well plates in complete EGM-2 media (˜100 μL/well); cells were plated at ˜2-3×10^5/mL, and were from passage 8 to 12. Cells were incubated overnight. On the following day cells are stimulated with TNF-α (˜1 ng/mL) in the presence or absence of compounds dissolved in DMSO. Triplicate wells were used for each test. To establish a dose curve and an IC50, multiple concentrations in 2- to 5-fold increments were used. Cells were exposed to TNF-α and compounds for approximately 16 hours. The next day, cells were visually examined via light microscopy to score for visual signs of toxicity. Cell culture media was analyzed using an MCP-1 ELISA. Cells were refed (−100 μL/well) with 20% CellTiter 96. Aqueous One Cell Proliferation Solution (Promega), 80% EGM-2 medium. Media optical density (at 490 nm) was determined after 1 hour. Plates were aspirated and cell lysates were prepared and these lysates were tested using a VCAM-1 ELISA.
(§2) In Table 2, a positive result (+) was defined as at least 50% inhibition of the protein levels MCP-1 or VCAM-1, as determined by the ELISA.

MCP-1 = MCP-1 ELISA on culture media of TNF-α stimulated HUVECs; type: cell-based; conditions: Homo sapiens, HUVEC, approx. 16 hours
Description: as §1, §2

[1] = system: Human coronary artery smooth muscle cells (CASMCs); assay: Smooth muscle cell proliferation protocol; type: cell-based; conditions: 72 hours, read-out: % Inhibition of SMC Proliferation
Description: Compounds were dissolved in DMSO, aliquoted, and stored at −20° C. Human coronary artery smooth muscle cells (CASMCs) were plated in 96-well plates and were grown in SmBM-2 media. After 1-2 hours, media was aspirated and replaced with serum-free ME/F12 media, except the controls. Cells were incubated for a further 48 hours. Compounds were diluted in DME/F12 containing 10% FBS. Media was aspirated from the plates and compounds in DME/F12 containing 10% FBS. Six wells were used per condition and duplicate plates were used. Cells were incubated for a further 72 hours. Media was aspirated from one set of plates; those cells were refed (˜100 μL/well) with 20% CellTiter 96 Aqueous One Cell Proliferation Solution (Promega), 80% EGM-2 medium. Media optical density (at 490 nm) was determined after 3-4 hours. In the second set of plates, serum-free DME/F12 media (20 μL) was added to each well. Part of the supernatant (50 μL) was removed and placed in an ELISA plate and was stored temporarily at 4° C. The remaining media and cells in the second set of plates were freeze-thawed for four cycles. The lysates and supernatants were mixed and centrifuged. Part of the supernatant (50 μL) was removed and placed in an ELISA plate. The Promega Cytotox assay was performed on the ELISA plates. The ratio of supernatant OD to supernatant+cell lysate OD was determined.
In Table 2, a positive result (+) was defined as at least 40% inhibition of the proliferation of SMC, as determined by the assay.

melting point [°C] | Structure (SMILES) | inhibition at 50 µM (VCAM-1) [%] | inhibition at 50 µM (MCP-1) [%] | inhibition at 50 µM [1] [%] | inhibition at 10 µM (VCAM-1; 10 uM) [%] | inhibition at 10 µM (MCP-1; 10 uM) [%] | inhibition at 10 µM ([1]; 10 uM) [%]
236 to 238 | CN(C)CCOc1ccc(-c2cc(=O)c3cccnc3o2)cc1 (as salt: hydrochloride) [EXAMPLE 27, 2-(4-(2-(dimethylamino)ethoxy)phenyl)-4H-pyrano[2,3-b]pyridin-4-one dihydrochloride] | – | – | – | – | – | –
248 to 250 | O=c1cc(-c2ccncc2)oc2ncccc12 (as salt: hydrochloride) [EXAMPLE 30, 2-(pyridin-4-yl)-4H-pyrano[2,3-b]pyridin-4-one hydrochloride] | – | – | – | – | – | –
254 to 255 | Nc1ccc(-c2cc(=O)c3cccnc3o2)cc1 (as salt: hydrochloride) [EXAMPLE 38, 2-(4-aminophenyl)-4H-pyrano[2,3-b]pyridin-4-one hydrochloride] | – | – | – | – | – | –
294 to 296 | O=c1cc(-c2ccc(O)cc2)oc2cnccc12 [EXAMPLE 3, 2-(4-Hydroxyphenyl)-pyrano[2,3-c]pyridin-one] | < 50 | < 50 | ≥ 40 | – | – | –
267 to 268 | O=c1cc(-c2ccc(O)c(F)c2)oc2ncccc12 [EXAMPLE 4, 2-(3-Fluoro-4-hydroxyphenyl)pyrano[2,3-b]pyridine-4-one] | ≥ 50 | < 50 | < 40 | – | – | –
300 to 302 | Cc1cc(-c2cc(=O)c3cccnc3o2)ccc1O [EXAMPLE 5, 2-(4-Hydroxy-3-methylphenyl)-4H-pyrano[2,3-b]pyridine-4-one] | – | – | – | < 50 | < 50 | < 40
306 to 308 | O=c1cc(-c2ccc(O)cc2)oc2ccncc12 [EXAMPLE 6, 2-(4-Hydroxyphenyl)-4H-pyrano[3,2-c]pyridin-4-one] | ≥ 50 | < 50 | ≥ 40 | – | – | –
259 to 262 | O=c1cc(-c2ccc(O)c(Cl)c2)oc2ncccc12 [EXAMPLE 7, 2-(3-Chloro-4-hydroxyphenyl)-4H-pyrano[2,3-b]pyridine-4-one] | ≥ 50 | ≥ 50 | ≥ 40 | – | – | –
253 to 255 | COc1cc(-c2cc(=O)c3cccnc3o2)ccc1O [EXAMPLE 8, 2-(4-Hydroxy-3-methoxyphenyl)-4H-pyrano[2,3-b]pyridine-4-one] | ≥ 50 | < 50 | < 40 | – | – | –
269 to 270 | COc1ccc(-c2cc(=O)c3cccnc3o2)cc1 [EXAMPLE 9, 2-(4-Methoxyphenyl)-4H-pyrano[2,3-b]pyridine-4-one] | < 50 | < 50 | ≥ 40 | – | – | –
157 to 159 | O=c1cc(-c2ccc(OCCO)cc2)oc2ncccc12 [EXAMPLE 10, 2-(4-(2-Hydroxyethoxy)phenyl)-4H-pyrano[2,3-b]pyridine-4-one] | < 50 | < 50 | ≥ 40 | – | – | –
103 to 105 | O=c1cc(-c2ccccc2)oc2ncccc12 [EXAMPLE 22, 2-Phenyl-4H-pyrano[2,3-b]pyridin-4-one] | < 50 | < 50 | ≥ 40 | – | – | –
218 to 219 | O=c1cc(-c2ccc(CO)cc2)oc2ncccc12 [EXAMPLE 23, 2-(4-(hydroxymethyl)phenyl)-4H-pyrano[2,3-b]pyridin-4-one] | < 50 | < 50 | ≥ 40 | – | – | –
295 to 297 | Cc1cc(-c2cc(=O)c3cccnc3o2)cc(C)c1O [EXAMPLE 24, 2-(4-hydroxy-3,5-dimethylphenyl)-4H-pyrano[2,3-b]pyridin-4-one] | ≥ 50 | ≥ 50 | ≥ 40 | – | – | –

The remaining lines, values behind:

Structure (SMILES) | melting point [°C] | inhibition at 50 µM (VCAM-1) [%] | inhibition at 50 µM (MCP-1) [%] | inhibition at 50 µM [1] [%] | inhibition at 10 µM (VCAM-1; 10 uM) [%] | inhibition at 10 µM (MCP-1; 10 uM) [%] | inhibition at 10 µM ([1]; 10 uM) [%]
Cc1cc(-c2cc(=O)c3cccnc3o2)cc(C)c1OCCN1CCOCC1 (as salt: hydrochloride) [EXAMPLE 31, 2-(3,5-dimethyl-4-(2-morpholinoethoxy)phenyl)-4H-pyrano[2,3-b]pyridin-4-one hydrochloride] | 276 to 278 | – | – | – | – | – | –
Cc1cc(-c2cc(=O)c3cc(CN4CCCC4)cnc3o2)cc(C)c1O (as salt: hydrochloride) [EXAMPLE 33, 2-(4-hydroxy-3,5-dimethylphenyl)-6-(pyrrolidin-1-ylmethyl)-4H-pyrano[2,3-b]pyridin-4-one dihydrochloride] | 337 to 338 | – | – | – | – | – | –
COc1cc(OC)c2c(=O)cc(-c3ccncc3)oc2c1 (as salt: hydrochloride) [EXAMPLE 34, 5,7-dimethoxy-2-(pyridin-4-yl)-4H-chromen-4-one hydrochloride] | 234 to 235 | – | – | – | – | – | –
O=c1cc(-c2ccccc2)oc2ncc(CN3CCCC3)cc12 (as salt: hydrochloride) [EXAMPLE 35, 2-phenyl-6-(pyrrolidin-1-ylmethyl)-4H-pyrano[2,3-b]pyridin-4-one hydrochloride] | 294 to 296 | – | – | – | – | – | –
O=c1cc(-c2ccc(F)cc2)oc2ncc(CN3CCCC3)cc12 (as salt: hydrochloride) [EXAMPLE 37, 2-(4-fluorophenyl)-6-(pyrrolidin-1-ylmethyl)-4H-pyrano[2,3-b]pyridin-4-one hydrochloride] | 265 to 268 | – | – | – | – | – | –
Cc1cc(-c2cc3ncccc3c(=O)[nH]2)cc(C)c1O (as salt: hydrochloride) [EXAMPLE 40, 7-(4-hydroxy-3,5-dimethylphenyl)-1,6-naphthyridin-5(6H)-one hydrochloride] | > 350 | – | – | – | – | – | –
COc1cc(O)nc2cc(-c3cc(C)c(O)c(C)c3)[nH]c(=O)c12 (as salt: hydrochloride) [EXAMPLE 41, 2-hydroxy-7-(4-hydroxy-3,5-dimethylphenyl)-4-methoxy-1,6-naphthyridin-5(6H)-one dihydrochloride] | > 330 | – | – | – | – | – | –
CNc1nc(-c2cc(C)c(O)c(C)c2)cc2ccc(CN3CCN(C)CC3)cc12 (as salt: hydrochloride) [EXAMPLE 43, 2,6-dimethyl-4-(1-(methylamino)-7-((4-methylpiperazin-1-yl)methyl)isoquinolin-3-yl)phenol trihydrochloride] | 264 to 266 | – | – | – | – | – | –
O=c1cc(-c2ccc(O)nc2)oc2ccccc12 [EXAMPLE 13, 2-(6-Hydroxypyridin-3-yl)-chromen-4-one] | 296 to 297 | ≥ 50 | < 50 | ≥ 40 | – | – | –
Oc1ccc(-c2cc3ccccc3cn2)cc1 [EXAMPLE 15, 4-Isoquinolin-3-yl-phenol] | 218 to 219 | ≥ 50 | < 50 | < 40 | – | – | –
Cn1c(-c2ccc(O)c(F)c2)cc2ncccc2c1=O [EXAMPLE 16, 7-(3-Fluoro-4-hydroxyphenyl)-6-methyl-1,6-naphthyridin-5(6H)-one] | 182 to 184 | < 50 | < 50 | < 40 | – | – | –
CNc1nc(-c2ccc(O)c(F)c2)cc2c(OC)cccc12 [EXAMPLE 17, 2-Fluoro-4-(5-methoxy-1-(methylamino)isoquinolin-3-yl)phenol] | 185 to 187 | ≥ 50 | ≥ 50 | < 40 | – | – | –
COc1cccc2c(=O)[nH]c(-c3ccc(O)c(F)c3)cc12 [EXAMPLE 18, 3-(3-Fluoro-4-hydroxyphenyl)-5-methoxyisoquinolin-1(2H)-one] | 289 to 291 | ≥ 50 | ≥ 50 | ≥ 40 | – | – | –
COc1cc(OC)c2c(=O)[nH]c(-c3ccc(O)cc3)cc2c1 [EXAMPLE 19, 3-(4-Hydroxyphenyl)-6,8-dimethoxyisoquinolin-1(2H)-one] | 245 to 247 | < 50 | ≥ 50 | ≥ 40 | – | – | –
O=c1[nH]c(-c2ccc(O)cc2)cc2ccccc12 [EXAMPLE 21, 3-(4-Hydroxyphenyl)-2H-isoquinolin-1-one] | 239 to 241 | ≥ 50 | ≥ 50 | ≥ 40 | – | – | –
